Data: patent US12173088B2, “Anti-microbial peptides” (priority 2018, dated 2024)
Converted amounts (≈) assume the structure as drawn. “Also recorded” adds a separate entry of the source. Like-named read-outs stand apart in the source and are kept apart here. Values belong to the molecule of their own block, whether it stands above or below them. Ends that are not written are not given here.

Columns and labels:
S. aureus USA300 [1] = assay: Propidium iodide membrane permeation; format: cell-based, Staphylococcus aureus
Experimental: The membrane permeation experiment was performed as described with minor modifications (Wang, et al. (2005) J. Biol. Chem., 280:5803-5811). Serially diluted 10× peptides (10 μL each well) were created in 96-well microtiter plates. Propidium iodide (2 μL) at a fixed concentration of 20 μM were added to each well followed by 88 μL of the S. aureus USA300 culture (a final OD600˜0.1 in TSB media). The plate was incubated at 37° C. with continuous shaking at 100 rpm in a FLUOstar® Omega (BMG LABTECH, Cary, NC) microplate reader. The fluorescence from the plate was read every 5 minutes for a total duration of 2 hours with an excitation and emission wavelengths of 584 nm and 620 nm, respectively. Plots were made using average values of duplicated experiments with MARS software.
The experiment was performed as described previously with minor modifications (Mishra, et al. (2017) Acta Biomater., 49:316-328). Serially diluted 10× peptides (10 μL each well) were created in 96-well microtiter plates. Propidium iodide (2 μL) at a fixed concentration of 20 μM were added to each well followed by 88 μL of the S. aureus USA300 culture (a final OD600˜0.1 in TSB media or PBS). The plate was incubated at 37° C. with continuous shaking at 100 rpm in a FLUOstar® Omega (BMG LABTECH) microplate reader. The samples fluorescence was read at every 5 minutes for 24 cycles with an excitation and emission wavelengths of 584 nm and 620 nm, respectively. Plots generated using average values from the experiments using GraphPad Prism.

E. coli E423-17 = assay: microbe, parasite or virus in culture; format: cell-based, Escherichia coli; conditions: Escherichia coli, E42317; Table 14; read-out: MIC E. coli E423-17
Text: (§1) The bacterial strains used include the Gram-positive strains Staphylococcus aureus USA300 LAC, S. epidermidis 1457, and Bacillus subtilis 168, as well as the Gram-negative isolates Escherichia coli K12 and Acinetobacter baumannii B2367-12. Additional, drug resistance strains include Gram-positive Enterococcus faecium V286-17 (VRE) and S. aureus M838-17 (MRSA) and Gram-negative E. coli E423-17, E. coli E416-17 (ampC), and P. aeruginosa E411-17. Bacteria were cultivated in tryptic soy broth (TSB) (BD Bioscience, MD).
(§2) The antibacterial activity of peptides was evaluated using a standard broth microdilution protocol with minor modifications as described (Mishra, et al. (2012) J. Am. Chem. Soc., 134:12426-12429). In brief, logarithmic phase bacterial cultures (i.e., optical density at 600 nm≈0.5) were diluted to OD600 0.001 and partitioned into a 96-well polystyrene microplate at 90 μL per well. After treatment with 10 μL of peptide solutions two fold diluted to various concentrations, microplates were incubated at 37° C. overnight and read on a ChroMate® 4300 Microplate Reader at 630 nm (GMI, Ramsey, MN). […] To study the influence of medium conditions on the antimicrobial activity of peptides against S. aureus USA300, up to 200 mM sodium chloride (NaCl), 2 mM of calcium chloride, 5-10% of human serum, mouse plasma, fluid, or supernatants of tissue homogenates were included into the assays.
(§3) The bacterial strains used include the Gram-positive bacteria methicillin-resistant Staphylococcus aureus USA300, Enterococcus faecium V286-17 (VRE), S. aureus M838-17 (MRSA) and Gram-negative bacteria E. coli E423-17, E416-7 (ampC), P. aeruginosa E411-17, PA01, K. pneumoniae E406-17, ATCC13883, and A. baumannii B26-16. Bacteria were cultivated in tryptic soy broth (TSB) from BD Bioscience.
(§4) The antibacterial activity of peptides was evaluated using a standard broth microdilution protocol with minor modifications (Mishra, et al. (2017) Acta Biomater., 49:316-328). In brief, logarithmic phase bacterial cultures (i.e., optical density at 600 nm≈0.5) were diluted to 0.001 OD and aliquoted 90 μL per well into a 96-well polystyrene microplate. Added 10 μL peptides per well with various concentrations, plates were incubated at 37° C., overnight. Post incubation the plates are read at 630 nm using a ChroMate® Microplate Reader (GMI). […] To study the influence of medium conditions on the antimicrobial activity of peptides against S. aureus USA300 at different pHs (6.8, 7.2, and 8.0), 150 mM sodium chloride (NaCl), 5-10% of human serum, mouse plasma, and peritoneal fluid were included into the assays.

S. aureus M838-17 (MRSA) = assay: microbe, parasite or virus in culture; format: cell-based, Staphylococcus aureus; conditions: Staphylococcus aureus, MRSA; Table 7; by weight; read-out: MIC S. aureus M838-17 (MRSA)
Summary of the method: (§5)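 Broth microdilution: log-phase cultures in tryptic soy broth diluted to OD600 0.001, exposed to two-fold diluted peptides at 37° C overnight, growth read at 630 nm. Medium effects on S. aureus USA300 tested with up to 200 mM NaCl, 2 mM CaCl2, 5-10% human serum, mouse plasma, fluids or tissue homogenate supernatants.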

S. aureus USA300 [2] = assay: microbe, parasite or virus in culture; format: cell-based, Staphylococcus aureus; conditions: Staphylococcus aureus, MRSA / USA300; Table 14; read-out: MIC S. aureus USA300 (MRSA)
Summary of the method: as §5

K. pneumoniae E406-17 = assay: microbe, parasite or virus in culture; format: cell-based, Klebsiella pneumoniae; conditions: Klebsiella pneumoniae, E40617; Table 14; read-out: MIC K. pneumoniae E406-17
Experimental: as §2, §3, §4

E. faecium V286-17 (VRE) = assay: microbe, parasite or virus in culture; format: cell-based, Enterococcus faecium; conditions: Enterococcus faecium, VRE, read-out: MIC E. faecium V286-17 (VRE)
Text: as §1, §2, §3, §4

P. aeruginosa E411-17 = assay: microbe, parasite or virus in culture; format: cell-based, Pseudomonas aeruginosa; conditions: Pseudomonas aeruginosa, E41117; Table 14; read-out: MIC P. aeruginosa E411-17
Text: as §1, §2, §3, §4

S. aureus USA300 [3] = format: in vivo, Staphylococcus aureus; conditions: different tissues; single i.p. injection; positive control
Experimental: Female C57BL/6 mice (6 weeks old) were purchased from Charles River. After environment adaptation, mice were induced neutropenic by administering two doses of cyclophosphamide on day 1 (150 mg/kg) and Day 4 (100 mg/kg). This cyclophosphamide administration was skipped for experiments using non-neutropenic mice (i.e., normal mice). On day 5, mice were infected with S. aureus USA300 LAC (˜2×10^6 CFU per mouse) via intraperitoneal injection (i.p.). For the treatment groups, mice were i.p. treated 2 hours post infection with peptides at a single dose of 5 mg/kg. Both positive and negative controls were included. At the end of the experiments, all animals were sacrificed according to institutional guidelines. Organs, including spleen, lung, kidney, and liver, were harvested, weighed, placed in sterile PBS and stored on ice. Harvested animal organs were subsequently homogenized using homogenizer (Omni, Kennesaw, GA). Proper dilutions, especially for untreated control groups, were made to get countable colonies. Blood agar plates were then incubated overnight at 37° C. The bacteria grown on plates were enumerated and plotted using the Graph pad Prism software.
Female C57BL/6 or Balb/c mice (6 weeks old) were purchased from Charles River. The mice were induced neutropenic by administering two doses of cyclophosphamide on day 1 (150 mg/kg) and Day 4 (100 mg/kg). On day 5, mice were infected with S. aureus USA300 (˜2×10^6 CFU per mouse) or K. pneumoniae E406-17 (˜5×10^5 CFU per mouse) via intraperitoneal injection (i.p.). For the treatment groups, mice were i.p. or intravenous (i.v.) treated 2 hours post infection with peptides at a single dose of 5, 10, or 15 mg/kg. Both positive and negative controls are used. At the end of the experiments, all animals were sacrificed according to institutional guidelines. […] The CFU of each mouse was plotted as an individual point and error bars represent the deviation within the experimental group. * p<0.05 ** p<0.01, ***p<0.001 and NS represents no significance (determined by Mann-Whitney test).

A. baumannii B26-16 = assay: microbe, parasite or virus in culture; format: cell-based, Acinetobacter baumannii; conditions: Acinetobacter baumannii, B2616; Table 14; read-out: MIC A. baumannii B26-16
Experimental: as §3, §4

[4] = literature; cited from earlier work

MIC (E. coli E423-17): > 8 µM
MIC (S. aureus M838-17 (MRSA)): 0.78 µM (≈ 1.26 µg/mL)
MIC (S. aureus USA300 [2]): 4 µM (≈ 6.48 µg/mL)
MIC (K. pneumoniae E406-17): > 8 µM
MIC (E. faecium V286-17 (VRE); Table 7): 3.1 µM (≈ 5.02 µg/mL)
MIC (E. faecium V286-17 (VRE); Table 14): 4 µM (≈ 6.48 µg/mL)
MIC (P. aeruginosa E411-17): > 8 µM
MIC (A. baumannii B26-16): > 8 µM
Molecule: CCCCCCCCCC(=O)N[C@@H](Cc1c[nH]c2ccccc12)C(=O)N[C@H](CC(N)=O)C(=O)N[C@@H](CC(=O)O)C(=O)N[C@@H]1C(=O)NCC(=O)N[C@@H](CCCN)C(=O)N[C@@H](CC(=O)O)C(=O)N[C@H](C)C(=O)N[C@@H](CC(=O)O)C(=O)NCC(=O)N[C@H](CO)C(=O)N[C@@H]([C@H](C)CC(=O)O)C(=O)N[C@@H](CC(=O)c2ccccc2N)C(=O)O[C@@H]1C [Daptomycin]
Propidium iodide membrane permeation (S. aureus USA300 [1]): fluorescence increase; also recorded: permeated bacterial membranes
Decrease in bacterial burden (S. aureus USA300 [3]): 1-4 logs

Molecule: ALWMTLLKKVLKAAAK (not fully specified (C-terminus)) [DS4(1-16)]
In vivo outcome [4]: failure

Molecule: GIGKFLKKAKKFGKAFVKILKK (not fully specified (C-terminus)) [MSI-78]
In vivo outcome [4]: failure

Molecule: RPDKPRPYLPRPRPPRPVR (not fully specified (C-terminus)) [Peptide A3-APO]
In vivo outcome [4]: showed in vivo efficacy
